The text below walks through data of ChEMBL document CHEMBL4622979, “Non-rigid Diarylmethyl Analogs of Baloxavir as Cap-Dependent Endonuclease Inhibitors of Influenza Viruses” (J Med Chem, 2020).

A short description of series [1]: Ratio of Cmax in CD1 mouse lung to plasma assessed as baloxavir acid level at 15 mg/kg, po administered as single dose by LC-MS/MS analysis. Format: ADME, organism-based. As to conditions: other tissue.
Series [2] in a line: Cmax in CD1 mouse blood assessed as baloxavir acid level at 15 mg/kg, po administered as single dose measured up to 24 hrs by LC-MS/MS analysis. Format: ADME, organism-based. More on the design: dose 15 mg/kg, route oral. As to conditions: in vivo.
A short description of series [3]: AUClast in CD1 mouse blood assessed as baloxavir acid level at 15 mg/kg, po administered as single dose measured up to 24 hrs by LC-MS/MS analysis. It is filed as ADME, organism-based. The settings on record: in vivo.
Series [4] is described as follows: MRTlast in CD1 mouse blood assessed as baloxavir acid level at 15 mg/kg, po administered as single dose measured up to 24 hrs by LC-MS/MS analysis. The settings on record: in vivo. It is filed as ADME, organism-based.
Series [5] in a line: AUClast in CD1 mouse liver assessed as baloxavir acid level at 15 mg/kg, po administered as single dose measured up to 24 hrs by LC-MS/MS analysis. Format: ADME, organism-based. The settings on record: in vivo.
The nature of series [6]: Tmax in CD1 mouse kidney assessed as baloxavir acid level at 15 mg/kg, po administered as single dose measured up to 24 hrs by LC-MS/MS analysis. Format: ADME, organism-based. As to conditions: in vivo.
Series [7] is described as follows: Tmax in CD1 mouse lung assessed as baloxavir acid level at 15 mg/kg, po administered as single dose measured up to 24 hrs by LC-MS/MS analysis. Format: ADME, organism-based. The settings on record: in vivo.
A short description of series [8]: Tmax in CD1 mouse small intestine assessed as baloxavir acid level at 15 mg/kg, po administered as single dose measured up to 24 hrs by LC-MS/MS analysis. It is filed as ADME, organism-based. As to conditions: in vivo.
Series [9] is described as follows: MRTlast in CD1 mouse small intestine assessed as baloxavir acid level at 15 mg/kg, po administered as single dose measured up to 24 hrs by LC-MS/MS analysis. Format: ADME, organism-based. The settings on record: in vivo.
The nature of series [10]: Half life in CD1 mouse brain assessed as baloxavir acid level at 15 mg/kg, po administered as single dose measured up to 24 hrs by LC-MS/MS analysis. It is filed as ADME, organism-based. As to conditions: in vivo.
Series [11] can be described thus: MRTlast in CD1 mouse spleen assessed as baloxavir acid level at 15 mg/kg, po administered as single dose measured up to 24 hrs by LC-MS/MS analysis. Format: ADME, organism-based. As to conditions: in vivo.
Series [12] can be described thus: Tmax in CD1 mouse muscle assessed as baloxavir acid level at 15 mg/kg, po administered as single dose measured up to 24 hrs by LC-MS/MS analysis. It is filed as ADME, organism-based, Muscle tissue. The settings on record: in vivo.
The nature of series [13]: AUClast in CD1 mouse muscle assessed as baloxavir acid level at 15 mg/kg, po administered as single dose measured up to 24 hrs by LC-MS/MS analysis. It is filed as ADME, organism-based, Muscle tissue. The settings on record: in vivo.
Series [14] is described as follows: Oral bioavailability in CD1 mouse assessed as (12aR)-12-(Diphenylmethyl)-7-hydroxy-3,4,12,12a-tetrahydro-1H-[1,4]oxazino[3,4-c]pyrido[2,1-f ][1,2,4]triazine-6,8-dione level at 15 mg/kg administered as single dose by LC-MS/MS analysis. It is filed as ADME, organism-based. As to conditions: in vivo.
Series [15] is described as follows: Elimination rate constant in CD1 mouse plasma assessed as (12aR)-12-(Diphenylmethyl)-7-hydroxy-3,4,12,12a-tetrahydro-1H-[1,4]oxazino[3,4-c]pyrido[2,1-f ][1,2,4]triazine-6,8-dione level at 15 mg/kg, po administered as single dose measured up to 24 hrs by LC-MS/MS analysis. It is filed as ADME, organism-based. The settings on record: in vivo.
The nature of series [16]: Half life in CD1 mouse blood assessed as (12aR)-12-(Diphenylmethyl)-7-hydroxy-3,4,12,12a-tetrahydro-1H-[1,4]oxazino[3,4-c]pyrido[2,1-f ][1,2,4]triazine-6,8-dione level at 15 mg/kg, po administered as single dose measured up to 24 hrs by LC-MS/MS analysis. The settings on record: in vivo. It is filed as ADME, organism-based.
Series [17] can be described thus: Elimination rate constant in CD1 mouse liver assessed as (12aR)-12-(Diphenylmethyl)-7-hydroxy-3,4,12,12a-tetrahydro-1H-[1,4]oxazino[3,4-c]pyrido[2,1-f ][1,2,4]triazine-6,8-dione level at 15 mg/kg, po administered as single dose measured up to 24 hrs by LC-MS/MS analysis. Format: ADME, organism-based. The settings on record: in vivo.
The nature of series [18]: Half life in CD1 mouse liver assessed as (12aR)-12-(Diphenylmethyl)-7-hydroxy-3,4,12,12a-tetrahydro-1H-[1,4]oxazino[3,4-c]pyrido[2,1-f ][1,2,4]triazine-6,8-dione level at 15 mg/kg, po administered as single dose measured up to 24 hrs by LC-MS/MS analysis. It is filed as ADME, organism-based. As to conditions: in vivo.
Series [19] can be described thus: AUCinfinity in CD1 mouse liver assessed as (12aR)-12-(Diphenylmethyl)-7-hydroxy-3,4,12,12a-tetrahydro-1H-[1,4]oxazino[3,4-c]pyrido[2,1-f ][1,2,4]triazine-6,8-dione level at 15 mg/kg, po administered as single dose measured up to 24 hrs by LC-MS/MS analysis. It is filed as ADME, organism-based. As to conditions: in vivo. Details: dose 15 mg/kg, route oral, time infinity.

A short description of series [20]: Cmax in CD1 mouse heart assessed as (12aR)-12-(Diphenylmethyl)-7-hydroxy-3,4,12,12a-tetrahydro-1H-[1,4]oxazino[3,4-c]pyrido[2,1-f ][1,2,4]triazine-6,8-dione level at 15 mg/kg, po administered as single dose measured up to 24 hrs by LC-MS/MS analysis. Format: ADME, organism-based. More on the design: dose 15 mg/kg, route oral. The settings on record: in vivo.
Series [21] in a line: AUClast in CD1 mouse trachea assessed as (12aR)-12-(Diphenylmethyl)-7-hydroxy-3,4,12,12a-tetrahydro-1H-[1,4]oxazino[3,4-c]pyrido[2,1-f ][1,2,4]triazine-6,8-dione level at 15 mg/kg, po administered as single dose measured up to 24 hrs by LC-MS/MS analysis. Format: ADME, organism-based. The settings on record: in vivo.
The nature of series [22]: Elimination rate constant in CD1 mouse small intestine assessed as (12aR)-12-(Diphenylmethyl)-7-hydroxy-3,4,12,12a-tetrahydro-1H-[1,4]oxazino[3,4-c]pyrido[2,1-f ][1,2,4]triazine-6,8-dione level at 15 mg/kg, po administered as single dose measured up to 24 hrs by LC-MS/MS analysis. It is filed as ADME, organism-based. As to conditions: in vivo.
Series [23] in a line: Tmax in CD1 mouse small intestine assessed as (12aR)-12-(Diphenylmethyl)-7-hydroxy-3,4,12,12a-tetrahydro-1H-[1,4]oxazino[3,4-c]pyrido[2,1-f ][1,2,4]triazine-6,8-dione level at 15 mg/kg, po administered as single dose measured up to 24 hrs by LC-MS/MS analysis. Format: ADME, organism-based. As to conditions: in vivo.
Series [24] can be described thus: Cmax in CD1 mouse small intestine assessed as (12aR)-12-(Diphenylmethyl)-7-hydroxy-3,4,12,12a-tetrahydro-1H-[1,4]oxazino[3,4-c]pyrido[2,1-f ][1,2,4]triazine-6,8-dione level at 15 mg/kg, po administered as single dose measured up to 24 hrs by LC-MS/MS analysis. Format: ADME, organism-based. More on the design: dose 15 mg/kg, route oral. As to conditions: in vivo.

Series [25] is described as follows: Cmax in CD1 mouse muscle assessed as (12aR)-12-(Diphenylmethyl)-7-hydroxy-3,4,12,12a-tetrahydro-1H-[1,4]oxazino[3,4-c]pyrido[2,1-f ][1,2,4]triazine-6,8-dione level at 15 mg/kg, po administered as single dose measured up to 24 hrs by LC-MS/MS analysis. More on the design: dose 15 mg/kg, route oral. Format: ADME, organism-based, Muscle tissue. The settings on record: in vivo.

A short description of series [26]: Ratio of free drug level in CD1 mouse blood assessed as (12aR)-12-(Diphenylmethyl)-7-hydroxy-3,4,12,12a-tetrahydro-1H-[1,4]oxazino[3,4-c]pyrido[2,1-f ][1,2,4]triazine-6,8-dione level at 50 mg/kg, po to EC50 for antiviral activity against Influenza A/California/04/2009 (H1N1)pdm09 infected in MDCK cells. It is filed as ADME, organism-based. The settings on record: in vivo.

Usually Cmax stands for the peak of the concentration-time curve. By Tmax is commonly meant the time at which the peak concentration occurs. For the compound `COC(=O)OCOc1c2n(ccc1=O)N([C@@H]1c3ccccc3SCc3c1ccc(F)c3F)[C@@H]1COCCN1C2=O` [BALOXAVIR MARBOXIL], in [1], the Ratio amounted to 10.8. Besides, the Cmax in series [2] is given as 215 ng/g. Further, the AUClast in series [3] worked out at 1381 ng·h/g; in series [5] it was 85226 ng·h/g; in series [13] it was 4716 ng·h/g. Moreover, the MRTlast in series [4] was 3.93 h; in series [9], 1.58 h; in [11], 5.54 h. Moreover, the Tmax was 2 h in series [6], 2 h in series [7], 0.5 h in series [8] and 2 h in series [12]. The t1/2 in [10] turned out to be 11.3 h.
As for `COC(=O)OCOc1c2n(ccc1=O)N(C(c1ccccc1)c1ccccc1)[C@@H]1COCCN1C2=O`, the F in series [14] is reported as 62.1%. Besides, the Kel stood at 0.44 h⁻¹ in [15], 0.3 h⁻¹ in series [17] and 0.54 h⁻¹ in [22]. The results for the t1/2 in [16] and in [18] were 1.74 h and 2.34 h, respectively. Also, the AUC in series [19] was determined as 34838 ng·h/g. Also, the Cmax amounted to 2537 ng/g in series [20], 24707 ng/g in [24] and 2005 ng/g in [25]. The AUClast in series [21] stood at 10575 ng·h/g. For the same compound, the Tmax in [23] was 0.5 h. The Ratio in series [26] amounted to 44.
